Experimental data taken from ChEMBL document CHEMBL5143695, “Benzobis(imidazole) derivatives as STAT3 signal inhibitors with antitumor activity” (Bioorg Med Chem, 2022).

Key:
[1] = Cytotoxicity against HEK-Blue IL-6 cells; assay type: toxicity, cell-based; settings: human
[2] = Inhibition of IL-6/JAK/STAT3 signalling pathway in HEK-blue IL-6 cells incubated for 16 hrs by SEAP reporter gene based QUANTI- blue assay; assay type: cell-based; settings: Homo sapiens, HEK-Blue IL-6, 16 h
ECa-109 cell line = assay: Antitumor activity against human EC109 cells assessed as reduction in cell viability incubated for 72 hrs by MTT assay; assay type: functional, cell-based; settings: ECa-109, 72 h
HepG2 [3] = assay: Antitumor activity against human HepG2 cells assessed as reduction in cell viability incubated for 72 hrs by MTT assay; assay type: functional, cell-based; settings: HepG2, 72 h
HepG2 [4] = assay: Antitumor activity against human HepG2 cells xenografted in BALB/c athymic nude mouse assessed as tumor growth inhibition at 60 mg/kg, po administered daily for 24 days relative to control; assay type: functional; settings: HepG2, 576 h, time 24 day, read-out: TGI
[5] = Toxicity in BALB/c athymic nude mouse xenografted with human HepG2 cells assessed as decrease in body weight at 60 mg/kg, po administered daily for 24 days; assay type: organism-based; settings: in vivo, 576 h, time 24 day

| Compound | IC50 [1] | IC50 [2] | IC50 (ECa-109 cell line) | IC50 (HepG2 [3]) | inhibition in vivo at 60 mg/kg (HepG2 [4]) | Activity [5] |
| --- | --- | --- | --- | --- | --- | --- |
| CCCn1c(-c2ccc(F)c(C(F)(F)F)c2)nc2cc3nc(-c4ccc(F)c(C(F)(F)F)c4)n(CCC)c3cc21 | > 10 µM | > 10 µM | – | – | – | – |
| CCCn1c(-c2cccc(C#N)c2)nc2cc3nc(-c4cccc(C#N)c4)n(CCC)c3cc21 | > 10 µM | 6.7 µM | – | – | – | – |
| CCCn1c(-c2cccc(OC)c2)nc2cc3nc(-c4cccc(OC)c4)n(CCN(C)C)c3cc21 | > 10 µM | > 10 µM | – | – | – | – |
| CCCn1c(-c2cccc(F)c2)nc2cc3nc(-c4cccc(F)c4)n(CCC)c3cc21 | > 10 µM | 1.5 µM | > 20 µM | > 20 µM | – | – |
| CCCn1c(-c2cccc(Cl)c2)nc2cc3nc(-c4cccc(Cl)c4)n(CCC)c3cc21 | > 10 µM | 2.89 µM | > 20 µM | 17.9 µM | – | – |
| CCCn1c(-c2nccs2)nc2cc3nc(-c4nccs4)n(CCC)c3cc21 | > 10 µM | > 10 µM | – | – | – | – |
| CCCn1c(-c2cncnc2)nc2cc3nc(-c4cncnc4)n(CCC)c3cc21 | > 10 µM | > 10 µM | – | – | – | – |
| CCCn1c(-c2cc(OC)cc(OC)c2)nc2cc3nc(-c4cc(OC)cc(OC)c4)n(CCC)c3cc21 | > 10 µM | > 10 µM | – | – | – | – |
| CCCn1c(C2CCC2)nc2cc3nc(C4CCC4)n(CCC)c3cc21 | > 10 µM | > 10 µM | – | – | – | – |
| CCCn1c(-c2ccc(Cl)c(C(F)(F)F)c2)nc2cc3nc(-c4ccc(Cl)c(C(F)(F)F)c4)n(CCC)c3cc21 | > 10 µM | > 10 µM | – | – | – | – |
| CCCn1c(-c2ccc(F)cc2)nc2cc3nc(-c4ccc(F)cc4)n(CCC)c3cc21 | > 10 µM | > 10 µM | – | – | – | – |
| CCCn1c(-c2ccc(C)o2)nc2cc3nc(-c4ccc(C)o4)n(CCC)c3cc21 | > 10 µM | > 10 µM | – | – | – | – |
| CCCn1c(-c2cccc(O)c2)nc2cc3nc(-c4cccc(O)c4)n(CCC)c3cc21 | > 10 µM | 10.2 µM | – | – | – | – |
| CCCn1c(-c2cc(OC)c(OC)c(OC)c2)nc2cc3nc(-c4cc(OC)c(OC)c(OC)c4)n(CCC)c3cc21 | > 10 µM | > 10 µM | – | – | – | – |
| CCCn1c(-c2ccccc2)nc2cc3nc(-c4ccccc4)n(CCN(C)C)c3cc21 | > 10 µM | > 10 µM | – | – | – | – |
| CCCn1c(-c2cc(C(C)(C)C)cc(C(C)(C)C)c2)nc2cc3nc(-c4cc(C(C)(C)C)cc(C(C)(C)C)c4)n(CCC)c3cc21 | > 10 µM | > 10 µM | – | – | – | – |
| CCCn1c(C2CCCCC2)nc2cc3nc(C4CCCCC4)n(CCC)c3cc21 | > 10 µM | 8.11 µM | – | – | – | – |
| CCn1c(-c2cccc(F)c2)nc2cc3nc(-c4cccc(F)c4)n(CC)c3cc21 | > 10 µM | > 10 µM | – | – | – | – |
| CC(C)Cn1c(-c2cccc(F)c2)nc2cc3nc(-c4cccc(F)c4)n(CC(C)C)c3cc21 | > 10 µM | > 10 µM | – | – | – | – |
| CCCn1c(-c2cccc(OCC)c2)nc2cc3nc(-c4cccc(OCC)c4)n(CCC)c3cc21 | > 10 µM | > 10 µM | – | – | – | – |
| CCCn1c(-c2ccccc2)nc2cc3nc(-c4ccccc4)n(CCC)c3cc21 | > 10 µM | 7.21 µM | 12.6 µM | 13.2 µM | – | – |

| Compound | IC50 [1] | IC50 [2] | IC50 (ECa-109 cell line) | IC50 (HepG2 [3]) | inhibition in vivo at 60 mg/kg (HepG2 [4]) | Activity [5] |
| --- | --- | --- | --- | --- | --- | --- |
| CCCCn1c(-c2cccc(F)c2)nc2cc3nc(-c4cccc(F)c4)n(CCCC)c3cc21 | > 10 µM | 7.85 µM | – | – | – | – |
| CCCn1c(-c2ccc(C)nc2)nc2cc3nc(-c4ccc(C)nc4)n(CCC)c3cc21 | > 10 µM | > 10 µM | – | – | – | – |
| CCCn1c(-c2cccc(Br)c2)nc2cc3nc(-c4cccc(Br)c4)n(CCC)c3cc21 | > 10 µM | > 10 µM | – | – | – | – |
| CCCn1c(-c2cccc(C)c2)nc2cc3nc(-c4cccc(C)c4)n(CCC)c3cc21 | > 10 µM | 2 µM | > 20 µM | 6.12 µM | – | – |
| CCCn1c(C2CCOCC2)nc2cc3nc(C4CCOCC4)n(CCC)c3cc21 | > 10 µM | > 10 µM | – | – | – | – |
| CCCn1c(-c2cc(F)cc(F)c2)nc2cc3nc(-c4cc(F)cc(F)c4)n(CCC)c3cc21 | > 10 µM | > 10 µM | – | – | – | – |
| CCCn1c(-c2ccc3cc[nH]c3c2)nc2cc3nc(-c4ccc5cc[nH]c5c4)n(CCC)c3cc21 | > 10 µM | > 10 µM | – | – | – | – |
| CCCn1c(-c2cccc3ccccc23)nc2cc3nc(-c4cccc5ccccc45)n(CCC)c3cc21 | > 10 µM | 9.5 µM | – | – | – | – |
| CCCn1c(C2CC2)nc2cc3nc(C4CC4)n(CCC)c3cc21 | > 10 µM | > 10 µM | – | – | – | – |
| CCCn1c(-c2cccn2C)nc2cc3nc(-c4cccn4C)n(CCC)c3cc21 | > 10 µM | > 10 µM | – | – | – | – |
| C[C@H]1COC2=C1C(=O)C(=O)c1c2ccc2c1CCCC2(C)C [CRYPTOTANSHINONE] | > 10 µM | 6.61 µM | 5.01 µM | 29.2 µM | – | – |
| CCCn1c(-c2ccc(C(F)(F)F)cc2)nc2cc3nc(-c4ccc(C(F)(F)F)cc4)n(CCC)c3cc21 | > 10 µM | > 10 µM | – | – | – | – |
| CCCn1c(-c2scc3ccccc23)nc2cc3nc(-c4scc5ccccc45)n(CCC)c3cc21 | > 10 µM | > 10 µM | – | – | – | – |
| CCCn1c(C2CCOC2)nc2cc3nc(C4CCOC4)n(CCC)c3cc21 (stereo unspecified) | > 10 µM | > 10 µM | – | – | – | – |
| CCCn1c(-c2cccc(OC)c2)nc2cc3nc(-c4cccc(OC)c4)n(C4CCN(C)CC4)c3cc21 | > 10 µM | > 10 µM | – | – | – | – |
| CCCn1c(-c2ccc[nH]2)nc2cc3nc(-c4ccc[nH]4)n(CCC)c3cc21 | > 10 µM | > 10 µM | – | – | – | – |
| CCCn1c(-c2ccccc2F)nc2cc3nc(-c4ccccc4F)n(CCC)c3cc21 | > 10 µM | 10.3 µM | – | – | – | – |
| CNC(=O)c1cc(Oc2ccc(NC(=O)Nc3ccc(Cl)c(C(F)(F)F)c3)cc2)ccn1 [SORAFENIB] | – | – | – | – | 88.4% | Toxic |
| CCCn1c(-c2cccc(C(=O)OC)c2)nc2cc3nc(-c4cccc(C(=O)OC)c4)n(CCC)c3cc21 | > 10 µM | 8.89 µM | – | – | – | – |
| CCCn1c(-c2cccc(C(F)(F)F)c2)nc2cc3nc(-c4cccc(C(F)(F)F)c4)n(CCC)c3cc21 | > 10 µM | 1.24 µM | > 20 µM | > 20 µM | – | – |
| Fc1cccc(-c2nc3cc4nc(-c5cccc(F)c5)n(C5CC5)c4cc3n2C2CC2)c1 | > 10 µM | > 10 µM | – | – | – | – |
